Experimental data reported in patent US20140256771A1, “COMPOUNDS THAT MODULATE INTRACELLULAR CALCIUM” (CalciMedica, Inc., priority 2011, published 2014).
Like-named read-outs stand apart in the source and are kept apart here.

Legend:
Orai1/STIM1 = molecular target: T1, Orai1/STIM1 (Homo sapiens, UniProt Q96D31); assay: Fluorescence-based assay of store-operated calcium entry in Orai1/STIM1 stable cells; assay type: cell-based; settings: HEK-293 cells stably expressing human STIM1 and Orai1, 50% inhibition of Peak-Basal fluo-4 signal, read-out: Orai1/STIM1 (IC50, μmol)
T1 construct: expressed in transfected cells; host or cells: HEK-293
T1 sequence (Q96D31 whole entry): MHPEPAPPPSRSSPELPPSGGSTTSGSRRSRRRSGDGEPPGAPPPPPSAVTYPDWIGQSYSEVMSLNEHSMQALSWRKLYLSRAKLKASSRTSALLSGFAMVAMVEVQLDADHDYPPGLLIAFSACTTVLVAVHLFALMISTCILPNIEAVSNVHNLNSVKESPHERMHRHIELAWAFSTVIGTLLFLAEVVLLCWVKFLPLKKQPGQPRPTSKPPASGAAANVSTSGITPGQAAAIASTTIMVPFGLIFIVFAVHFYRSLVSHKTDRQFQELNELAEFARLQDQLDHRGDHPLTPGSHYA
Procedure: A. Fluorescence-based Assay of Store-Operated Calcium Entry in Orai1/STIM1 Stable Cells.
Cells stably expressing recombinant human STIM1 and Orai1 are generated by transfecting a human Orai1 expression plasmid (pcDNA3.1-Orai1-cmyc) into HEK-293 cells stably overexpressing human STIM1 (Roos et al. 2005 JCB 169(3): 435-445). Colonies of cells stably expressing both STIM1 and Orai1 proteins are selected and then subcloned by limiting dilution. Cells were cultured at 37° C./6% CO2 in complete medium with 10% FBS and appropriate selection markers.
The day prior to performing the assay Orai1/STIM1 stable cells are plated in 50 μL of complete medium at 90-95% confluence in a 384 well plate. Cells are grown at 37° C./6% CO2 overnight. On the day of the assay, 1.5 μM fluo-4-AM (Invitrogen) in complete medium is added to the cells, which are then incubated for 1 hour at RT. Cells are washed once in Ca^2+-free HBSS (Hank's buffered saline solution) and 35 μl of Ca^2+-free HBSS is added to each well. Test compounds are added to wells in a 10 μL Ca^2+-free HBSS solution, prepared at 4.5× the desired final concentration, and incubated for 30 minutes at RT. The initial baseline fluorescence signal is then measured with a FLIPR^384 (Molecular Devices) plate reader. Calcium entry is initiated by adding 5 μl of 10× CaCl2 (10 mM) in HBSS, and changes in cellular fluorescence are measured with the FLIPR^384 plate reader. In each well, the magnitude of the fluorescence signal as a result of calcium entry into the cell is determined by calculating the difference between the peak fluorescence signal measured after calcium addition and the initial baseline fluorescence signal (designated Peak-Basal). IC50 values are typically calculated as the concentration that inhibited 50% of the Peak-Basal signal (Table A).

RBL-2H3 cells = assay: Fluorescence-based assay of store-operated calcium entry in RBL-2H3 cells; assay type: cell-based, rat; settings: Rattus norvegicus, RBL-2H3, thapsigargin store depletion, 50% inhibition of Upslope, read-out: RBL-2H3 (IC50, μmol)
Procedure: B. Fluorescence-based Assay of Store-Operated Calcium Entry in RBL-2H3Cells.
RBL-2H3 cells are obtained from ATCC and maintained in complete medium with 10% FBS at 37° C./6% CO2.
The day prior to performing the assay, RBL-2H3 cells are plated in 50 μL of complete medium in a 384 well plate. Cells are grown at 37° C./6% CO2 overnight and grow to 50-60% confluence by the next day. On the assay day, 1.5 μM Fluo-4-AM dye (Invitrogen) in complete medium is added and incubated for 1 hour at RT. Cells are washed twice in Ca^2+-free HBSS buffer and 35 μL Ca^2+-free HBSS buffer is added to each well. 10 μL of a test compound prepared in a Ca^2+-free HBSS solution at 4.5× of the desired concentration is added to a well and incubated for 5 minutes at RT. 10 μL of thapsigargin prepared in a Ca^2+-free HBSS solution at 5.5× of the desired concentration (5.5 uM) is added to each well and incubated for an additional 25 minutes. The initial baseline fluorescence signal is measured with a FLIPR^384 (Molecular Devices) plate reader. 5 μL of 12× calcium in HBSS (12 mM) is added and changes in cellular fluorescence are measured with the FLIPR^384 plate reader. In each well, the change in the fluorescent signal as a function of time due to calcium entry into the cell is determined by calculating the difference between the fluorescent signal measured 7 seconds after calcium addition and the initial baseline fluorescence signal at time zero (t=0). This parameter is designated Upslope. The IC50 value is calculated as the concentration at which 50% of the Upslope is inhibited.

Row | Structure (SMILES) | IC50 (Orai1/STIM1; Table iv) | IC50 (RBL-2H3 cells; Table iv) | IC50 (Orai1/STIM1; Table iii) | IC50 (RBL-2H3 cells; Table iii)
1 | Cc1ccccc1C(=O)Nc1ccc(-c2nc(C(F)(F)F)sc2C)cc1 | < 600 nM | < 600 nM | – | –
2 | Cc1cccc(F)c1CNc1ccc(-c2cn(C(F)F)nc2C)cc1 | – | – | < 600 nM | < 600 nM
3 | Cn1nc(C(F)(F)F)cc1-c1ccc(NC(=O)c2ccc(F)cc2F)cc1 | < 600 nM | < 600 nM | – | –
4 | Cc1nc(C(F)(F)F)cn1-c1ccc(NCc2c(F)cccc2F)cc1F | – | – | < 600 nM | < 600 nM
5 | Cc1cc(C(F)(F)F)nn1-c1ccc(NCc2ccccc2F)cc1 | – | – | < 600 nM | < 600 nM
6 | Cc1cc2c(cc1-c1ccc(NC(=O)c3ccccc3F)cc1F)OC(F)(F)O2 | > 1200 nM | < 600 nM | – | –
7 | Cc1cc2c(cc1-c1ccc(NCc3ccccc3F)cc1F)OC(F)(F)O2 | – | – | > 1200 nM | < 600 nM
8 | Cn1nc(C(F)(F)F)cc1-c1ccc(NCc2c(F)ccc(F)c2F)cc1F | – | – | < 600 nM | < 600 nM
9 | Cc1cc2c(cc1-c1ccc(NCc3cncc(F)c3)cc1)OC(F)(F)O2 | – | – | 600 to 1200 nM | < 600 nM
10 | Cc1cc(F)ccc1CNc1ccc(-n2cc(C(F)(F)F)nc2C)c(F)c1 | – | – | > 1200 nM | < 600 nM
11 | Cc1nn(C(F)F)cc1-c1ccc(NCc2c(F)cc(F)cc2F)cc1 | – | – | < 600 nM | < 600 nM
12 | Cc1sc(C(F)(F)F)nc1-c1ccc(NCc2ccccc2F)cc1 | – | – | < 600 nM | < 600 nM
13 | Cc1cc(C(F)(F)F)nn1-c1ccc(NC(=O)c2c(F)cccc2F)cc1 | 600 to 1200 nM | < 600 nM | – | –
14 | Cc1cc(C(F)(F)F)nn1-c1ccc(NCc2c(F)cccc2F)cc1 | – | – | < 600 nM | < 600 nM
15 | Cc1sc(C(F)(F)F)nc1-c1ccc(NCc2c(F)cc(F)cc2F)cc1 | – | – | < 600 nM | < 600 nM
16 | Cc1sc(C(F)(F)F)nc1-c1ccc(NC(=O)c2ccccc2F)cc1 | < 600 nM | < 600 nM | – | –
17 | Cn1nc(C(F)(F)F)cc1-c1ccc(NCc2ccccc2F)c(F)c1 | – | – | 600 to 1200 nM | > 1200 nM
18 | Cn1nc(C(F)(F)F)cc1-c1ccc(NC(=O)c2c(F)cccc2F)c(F)c1 | < 600 nM | < 600 nM | – | –
19 | Cn1nc(C(F)(F)F)cc1-c1ccc(NC(=O)c2c(F)cc(F)cc2F)cc1F | < 600 nM | < 600 nM | – | –
20 | Cc1nn(C(F)F)cc1-c1ccc(NCc2c(F)cccc2F)cc1F | – | – | < 600 nM | < 600 nM
21 | Cc1cc(F)ccc1C(=O)Nc1ccc(-c2cc(C(F)F)nn2C)c(F)c1 | < 600 nM | < 600 nM | – | –
22 | Cc1ccccc1CNc1ccc(-c2cc(C(F)(F)F)nn2C)c(F)c1 | – | – | < 600 nM | < 600 nM
23 | Cc1cc2c(cc1-c1ccc(NC(=O)c3cncc(F)c3)cc1)OC(F)(F)O2 | 600 to 1200 nM | < 600 nM | – | –
24 | Cc1nn(C(F)F)cc1-c1ccc(NCc2c(F)cc(F)cc2F)cc1F | – | – | < 600 nM | < 600 nM
25 | Cn1nc(C(F)(F)F)cc1-c1ccc(NCc2ccc(F)cc2F)cc1F | – | – | < 600 nM | < 600 nM
26 | Cn1nc(C(F)(F)F)cc1-c1ccc(NCc2c(F)cccc2F)cc1 | – | – | < 600 nM | < 600 nM
27 | Cc1nc(C(F)(F)F)cn1-c1ccc(NC(=O)c2c(F)cccc2F)cc1F | > 1200 nM | 600 to 1200 nM | – | –
28 | Cc1cc(C(F)(F)F)nn1-c1ccc(NC(=O)c2c(F)cncc2F)cc1 | > 1200 nM | < 600 nM | – | –
29 | Cn1nc(C(F)(F)F)cc1-c1ccc(NC(=O)c2ccc(F)cc2F)cc1F | < 600 nM | < 600 nM | – | –
